The results in this text go back to patent US5708007A, “2-(piperidin-4-yl, pyridin-4-yl and tetrahydropyridin-4-yl) benzofuran-7-ol and carbamate derivatives for treating memory dysfunction” (priority 1996, dated 1998).

The assay addresses T1, Brain AChE (Rattus norvegicus, UniProt P37136).
T1 construct: corpora striata dissected free, weighed and homogenized in 19 volumes; from tissue; host or cells: corpora striata of male Wistar rats, crude homogenate in 0.05M phosphate buffer
T1 sequence (P37136 32-614): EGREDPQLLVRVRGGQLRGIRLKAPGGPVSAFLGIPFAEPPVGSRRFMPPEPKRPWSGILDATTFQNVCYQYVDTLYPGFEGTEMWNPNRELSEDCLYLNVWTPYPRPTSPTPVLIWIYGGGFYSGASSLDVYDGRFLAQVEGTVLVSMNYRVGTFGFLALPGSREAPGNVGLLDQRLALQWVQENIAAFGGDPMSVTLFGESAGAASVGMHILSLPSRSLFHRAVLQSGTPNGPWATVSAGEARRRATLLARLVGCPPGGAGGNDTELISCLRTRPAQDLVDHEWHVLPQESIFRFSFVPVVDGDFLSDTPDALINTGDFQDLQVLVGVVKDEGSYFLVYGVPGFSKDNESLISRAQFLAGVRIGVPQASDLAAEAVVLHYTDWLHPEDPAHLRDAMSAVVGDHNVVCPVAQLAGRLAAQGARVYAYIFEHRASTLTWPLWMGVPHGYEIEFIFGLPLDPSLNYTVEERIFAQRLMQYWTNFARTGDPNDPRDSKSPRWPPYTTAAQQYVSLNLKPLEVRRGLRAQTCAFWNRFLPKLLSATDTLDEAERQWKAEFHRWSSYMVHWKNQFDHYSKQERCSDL
As to the kind of experiment: biochemical. On the set-up: species or system rat (male Wistar). Particulars: rat striatum homogenate; acetylthiocholine 5 mM final; pH 7.2; 10 min preincubation at 37° C.; log-probit analysis; read-out: Inhibitory Concentration (μM) Brain AChE. The text has this:
Cholinesterases are found throughout the body, both in the brain and in serum. However, only brain acetylcholinesterase (AChE) distribution is correlated with central cholinergic innervation. […] We have determined in vitro inhibition of acetylcholinesterase activity in rat striatum according to the method described below.
In Vitro Inhibition of Acetylcholinesterase Activity in Rat Striatum
The method described below was used in this invention for assaying anticholinesterase activity. This is a modification of the method of Ellman et al., Biochem. Pharmacol. 7, 88 (1961).
1. 0.05M Phosphate buffer, pH 7.2
(c) add (a) to (b) until pH reaches 7.2
4. A 2 mM stock solution of the test drug is made up in a suitable solvent and brought to volume with 0.5 mM DTNB (reagent 3). Drugs are serially diluted (1:10) such that the final concentration (in cuvette) is 10^-4 M and screened for activity. If active, IC50 values are determined from the inhibitory activity of subsequent concentrations.
Enzyme activity is measured with the Beckman DU-50 spectrophotometer. This method can be used for IC50 determinations and for measuring kinetic constants.
Reagents are added to the blank and sample cuvettes as follows:
This program also calculates the rate of absorbance change for each cuvette.
Substrate concentration is 10 mM diluted 1:2 in assay yielding final concentration of 5 mM.
IC50 values are calculated from log-probit analysis.
In the case of `CNC(=O)Oc1cccc2cc(C3CCN(C)CC3)oc12` [2-(1-METHYL-4-PIPERIDINYL)-BENZOFURAN-7-YL METHYL CARBAMATE], the IC50 was found to be 1.8 µM.

`CN(C)C(=O)Oc1cccc2cc(C3CCNCC3)oc12` [2-(4-PIPERIDINYL)BENZOFURAN-7-YL DIMETHYL CARBAMATE HEMIFUMARATE]: the IC50 turned out to be 1.9 µM. As for `CNC(=O)Oc1cccc2cc(-c3ccncc3)oc12` [2-(4-PYRIDINYL)BENZOFURAN-7-YL METHYL CARBAMATE], the figure is 1.2 µM.
